Target: T1, ERβ (estrogen receptor β) (Homo sapiens, UniProt Q92731)
T1 construct: gene ESR2; full-length ERβ
Experiment: fluorescence polarization competition binding (PolarScreen ERβ Competitor Assay, Fluormone Tracer)

T1 sequence (Q92731 whole entry): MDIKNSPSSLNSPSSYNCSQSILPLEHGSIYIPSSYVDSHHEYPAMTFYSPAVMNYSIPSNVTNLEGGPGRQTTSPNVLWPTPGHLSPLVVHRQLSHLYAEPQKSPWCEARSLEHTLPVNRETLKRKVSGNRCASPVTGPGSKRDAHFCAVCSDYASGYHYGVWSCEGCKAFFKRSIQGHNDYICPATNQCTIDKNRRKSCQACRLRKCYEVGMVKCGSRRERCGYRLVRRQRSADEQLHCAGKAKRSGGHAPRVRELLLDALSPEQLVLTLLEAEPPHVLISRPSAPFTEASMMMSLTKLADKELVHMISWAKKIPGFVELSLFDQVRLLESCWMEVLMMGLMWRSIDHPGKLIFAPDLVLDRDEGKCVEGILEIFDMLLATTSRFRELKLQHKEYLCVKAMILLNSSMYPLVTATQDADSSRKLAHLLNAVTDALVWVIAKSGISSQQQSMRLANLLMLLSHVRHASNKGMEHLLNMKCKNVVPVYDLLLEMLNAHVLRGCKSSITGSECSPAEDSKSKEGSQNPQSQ

COc1cc(C[C@H]2C(=O)OC[C@@H]2Cc2ccc(OC)c(OC)c2)ccc1O [ARCG, arctigenin]
IC50: 3.29 µM
